Test results reported in patent publication US20080026996A1, “Selective Vpac2 Receptor Reptide Agonists” (ELI LILLY AND COMPANY, priority 2004, published 2008).
“And” between values parts separate entries of the source, which are not always exact repeats. Equal entries are not always repeated. Where no end group is shown, it is not given here. [ ]: non-standard residue; d: D form. The star is where a group is joined. hArg = N=C(N)NCCCC[C@H](N)C(=O)O; Hexanoyl = CCCCCC(=O)*

Key:
[1] = target: T1, human PAC1 (Homo sapiens, UniProt P41586); test: DiscoveRx cAMP in vitro potency, CHO-PO cells transiently transfected with human PAC1 receptor; assay type: cell-based; set-up: expressed in transfected cells; host or cells: CHO-PO, transient (Lipofectamine); conditions: cAMP generation; mean of two independent runs; read-out: Human PAC1 Receptor: DiscoveRx EC50
T1 sequence (P41586 21-468): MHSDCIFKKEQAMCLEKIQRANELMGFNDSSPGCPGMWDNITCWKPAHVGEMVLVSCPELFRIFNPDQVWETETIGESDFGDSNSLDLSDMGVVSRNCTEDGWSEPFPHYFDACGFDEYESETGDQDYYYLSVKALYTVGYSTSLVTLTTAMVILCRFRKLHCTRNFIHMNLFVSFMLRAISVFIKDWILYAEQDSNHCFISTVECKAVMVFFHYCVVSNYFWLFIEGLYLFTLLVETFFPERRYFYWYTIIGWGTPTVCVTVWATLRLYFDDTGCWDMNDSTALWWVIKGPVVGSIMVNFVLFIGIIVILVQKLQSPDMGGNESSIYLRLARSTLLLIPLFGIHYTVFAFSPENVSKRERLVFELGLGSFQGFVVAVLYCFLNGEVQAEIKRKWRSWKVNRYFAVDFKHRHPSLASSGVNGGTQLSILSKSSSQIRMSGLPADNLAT
Procedure: (§1) Also, the cells are washed twice. The cells are incubated in assay buffer plus IBMX for 15 minutes at room temperature. […] The stimuli are present for 30 minutes. Then, the assay buffer is gently removed. […] At day 3, the assay described above for the VPAC2 receptor cell line is performed.

[2] = target: T2, human VPAC2 (Homo sapiens, UniProt P41587); test: Filter binding assay, membranes of stable VPAC2 cell line, 125I-labeled VIP tracer (Table 2); conditions: read-out: Human VPAC2 Receptor Binding
T2 construct: expressed in transfected cells
T2 sequence (P41587 24-438): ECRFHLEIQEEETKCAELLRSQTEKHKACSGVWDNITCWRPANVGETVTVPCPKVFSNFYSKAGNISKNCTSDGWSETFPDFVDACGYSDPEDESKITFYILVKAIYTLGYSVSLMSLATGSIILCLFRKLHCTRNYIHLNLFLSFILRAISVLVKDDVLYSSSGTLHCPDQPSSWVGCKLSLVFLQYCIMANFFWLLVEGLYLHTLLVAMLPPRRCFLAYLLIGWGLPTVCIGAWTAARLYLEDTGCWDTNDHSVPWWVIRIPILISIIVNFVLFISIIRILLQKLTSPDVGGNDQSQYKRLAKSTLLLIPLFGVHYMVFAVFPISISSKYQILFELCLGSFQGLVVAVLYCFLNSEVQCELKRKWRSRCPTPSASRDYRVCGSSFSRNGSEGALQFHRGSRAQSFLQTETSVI
How it was run: (§2)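 Membranes 2.5 μg/well; tracer ~40000 cpm; buffer 25 mM HEPES pH 7.4, 0.5% protease-free BSA; 1 h incubation, shaking. Glass-fibre filtration (0.5% polyethyleneamine presoak, 0.2% BSA block), 3× HEPES wash, dry 1 h at 60° C, scintillation count.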

[3] = target: T2, human VPAC2; test: DiscoveRx cAMP in vitro potency, CHO-S cell line stably expressing human VPAC2 receptor; assay type: cell-based; conditions: cAMP generation; mean of two independent runs
Procedure: as §1

[4] = target: T3, human VPAC1 (Homo sapiens, UniProt P32241); test: Filter binding assay, membranes of cells transiently transfected with human VPAC1, 125I-labeled VIP tracer (Table 2); set-up: expressed in transfected cells; conditions: read-out: Human VPAC1 Receptor Binding
T3 sequence (P32241 31-457): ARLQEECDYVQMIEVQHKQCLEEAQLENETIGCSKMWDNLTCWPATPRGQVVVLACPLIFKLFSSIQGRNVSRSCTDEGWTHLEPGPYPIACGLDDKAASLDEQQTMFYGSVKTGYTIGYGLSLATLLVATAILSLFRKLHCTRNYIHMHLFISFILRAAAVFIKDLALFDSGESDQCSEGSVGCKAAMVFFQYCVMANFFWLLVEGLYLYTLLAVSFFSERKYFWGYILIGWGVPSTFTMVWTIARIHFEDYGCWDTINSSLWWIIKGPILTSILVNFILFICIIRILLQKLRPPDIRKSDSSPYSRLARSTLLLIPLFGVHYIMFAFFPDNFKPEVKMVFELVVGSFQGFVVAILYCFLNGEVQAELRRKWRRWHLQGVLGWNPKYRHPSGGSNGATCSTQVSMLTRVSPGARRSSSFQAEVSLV
How it was run: as §2

[5] = target: T4, DPP-IV (Sus scrofa, UniProt P22411); test: DPP-IV HPLC assay: in vitro incubation with purified dipeptidyl-peptidase IV; assay type: in vitro ADME, Porcine
T4 construct: purchased Sigma
Procedure: Part 1: Formulation of Selective VPAC2 Receptor Peptide Agonists: […]
Approximately 2 mg of lyophilized peptide is weighed and dissolved in approximately 1.6 mL de-ionized water. […] After incubation at room temperature for 30 minutes, 1/10th of the original volume 10×PBS is added. The pH is adjusted to between pH 7.2 and 7.6. The peptide solution is filtered through a 0.22 μm Millex-GV syringe filter (Millipore, Bedford Mass., USA). The peptide concentration is determined through absorption at 280 nm. The peptide concentration is then adjusted to 100 μM. The peptides are frozen at −20° C. for further use.
Part 2: In Vitro Incubation of Selective VPAC2 Receptor Peptide Agonists with Purified Dipeptidyl-Peptidase IV (DPP-IV):
The stability of selective VPAC2 receptor peptide agonists against proteolysis by DPP-IV is determined using 100 μL of a 100 μM peptide solution in 1×PBS. A 10 μL solution is removed and quenched with 40 μL of 0.1% trifluoroacetic acid (TFA)/20% acetonitrile (ACN). This solution (20 μL) is analyzed by reversed-phase HPLC. The reversed-phase analysis consists of a Zorbax 300SB-C8 column (3.5 micron, 4.6×50 mm, Alltech Associates, Inc., Deerfield Ill., USA) running a 15-40% B gradient over 15 minutes at 60° C. where A-buffer is 0.1% (v/v) TFA in water and B-buffer is 0.085% (v/v) TFA in ACN. The peak area is integrated. This peak area serves as an internal control as 100% intact peptide.
A 10 μL aliquot of a 1.12 mU/μL solution of DPP-IV (Sigma, St. Louis, La., USA) is added to 90 μL of a 100 μM solution of peptide, resulting in a substrate concentration of 90 μM peptide. The reaction mixture is then stored at 37° C. At various time-points, 10 μL of solution is removed, quenched with 40 μL 0.1% TFA/20% ACN, and analyzed by reversed-phase HPLC as described above. The remaining full length peptide concentration (nM) at each timepoint, except time=0, is calculated using following formula: [formula]
For the time=0 timepoint, the concentration (nM) is calculated using the following formula: [formula]

T4 sequence (P22411 whole entry): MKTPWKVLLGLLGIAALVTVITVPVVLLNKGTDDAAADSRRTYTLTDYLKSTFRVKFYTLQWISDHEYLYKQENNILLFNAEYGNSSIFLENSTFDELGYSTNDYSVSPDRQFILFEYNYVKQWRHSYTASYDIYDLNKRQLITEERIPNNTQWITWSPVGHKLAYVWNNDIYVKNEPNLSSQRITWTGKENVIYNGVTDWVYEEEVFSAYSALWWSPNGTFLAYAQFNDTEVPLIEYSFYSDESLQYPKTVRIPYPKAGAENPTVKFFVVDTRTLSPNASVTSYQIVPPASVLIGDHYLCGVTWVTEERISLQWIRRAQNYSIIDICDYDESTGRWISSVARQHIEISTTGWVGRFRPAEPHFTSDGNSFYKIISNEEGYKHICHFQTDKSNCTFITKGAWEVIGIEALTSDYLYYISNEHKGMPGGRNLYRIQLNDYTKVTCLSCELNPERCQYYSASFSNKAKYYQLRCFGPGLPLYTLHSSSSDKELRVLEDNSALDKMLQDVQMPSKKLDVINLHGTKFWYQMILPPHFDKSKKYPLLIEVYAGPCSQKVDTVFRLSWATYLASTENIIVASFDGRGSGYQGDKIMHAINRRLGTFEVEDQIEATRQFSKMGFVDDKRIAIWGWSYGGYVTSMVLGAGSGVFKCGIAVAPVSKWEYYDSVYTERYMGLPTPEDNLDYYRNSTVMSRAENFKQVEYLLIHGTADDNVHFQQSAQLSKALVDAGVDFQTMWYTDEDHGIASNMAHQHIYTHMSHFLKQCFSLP

| Substance | EC50 [1] [µM] | IC50 [2] [µM] | EC50 [3] [µM] | IC50 [4] [µM] | Concentration (nM) of Remaining Main Peak by RP-HPLC after Incubation of Peptide with Purified Porcine DPP-IV ([5]; Time = 0 hours at 37° C.) [nM] | Concentration (nM) of Remaining Main Peak by RP-HPLC after Incubation of Peptide with Purified Porcine DPP-IV ([5]; Time = 2 hours at 37° C.) | Concentration (nM) of Remaining Main Peak by RP-HPLC after Incubation of Peptide with Purified Porcine DPP-IV ([5]; Time = 6 hours at 37° C.) | Concentration (nM) of Remaining Main Peak by RP-HPLC after Incubation of Peptide with Purified Porcine DPP-IV ([5]; Time = 24 hours at 37° C.) |
| --- | --- | --- | --- | --- | --- | --- | --- | --- |
| H-HSDAVFTDNYTRLRKQVAARKYLQSIKNKRYGGPSSGAPPPS [Agonist P20] | > 0.025 | 0.0025 | 0.00213 | 0.0987 | – | – | – | – |
| Hexanoyl-HSDAVFTDNYTRLLAKLALQKYLQSIKNKRYGGPSSGAPPPS [VPAC2-P119] | – | – | – | – | 9.0 | 8.0 nM | 6.6 nM | 4.2 nM |
| HSDAVFTDNYTRAAAKVAAKKYLQSIKNKRYGGPSSGAPPPS [Agonist P88] | – | 0.0939 | > 1 | 0.979 | – | – | – | – |
| H[dA]DAVFTDNYTRLRKQVAAKKYLQSIKNKRYGGPSSGAPPPS [VPAC2-P47] | – | – | – | – | 9.0 | 7.9 nM | 6.1 nM | 2.8 nM |
| H-HTDAVFTDNYTRLRKQVAAKKYLQSIKNKRYGGPSSGAPPPS [Agonist P45] | 0.315 | – | 0.0116 | – | – | – | – | – |
| HSDATFTDNYTRLRKQVAAKKYLQSIKNKRYGGPSSGAPPPS [Agonist P62] | 0.137 | – | 0.0132 | – | – | – | – | – |
| HSDAVFTDNYTRLRKQVAAKKYLQSIKN[hArg]RYGGPSSGAPPPS [Agonist P24] | > 0.1 | 0.00197 | – | 0.198 | – | – | – | – |
| HSDAVFTDNYTRLRKQVAAKKYLQSIKNRRYGGPSSGAPPPS [Agonist P25] | 0.137 | 0.00165 | – | 0.233 | – | – | – | – |
| HGDAVFTDNYTRLRKQVAAKKYLQSIKNKRYGGPSSGAPPPS [Agonist P43] | 0.104 | – | – | – | – | – | – | – |
| Hexanoyl-HSDAVFTDNYTRLRKQVAAKKYLQSIKNKRYGGPSSGAPPPS [VPAC2-P31] | – | – | – | – | 9.0 | 8.0 nM and 7.0 nM and 6.7 nM | 6.7 nM and 6.1 nM and 5.6 nM | 2.2 nM and 2.6 nM and 3.9 nM |
